Experiments:
[1] = molecular target: T1, SCD1 protein extracted from murine liver (Mus musculus, UniProt P13516); test: In vitro SCD1 enzymatic inhibition by LC/MS (stearoyl-CoA to oleoyl-CoA, liver microsomes); type: biochemical; settings: n=2
T1 construct: Microsomes were isolated from murine liver using Microsome Isolation Kit (BioVision); from tissue; host or cells: murine liver microsomes
T1 sequence (P13516 1-355): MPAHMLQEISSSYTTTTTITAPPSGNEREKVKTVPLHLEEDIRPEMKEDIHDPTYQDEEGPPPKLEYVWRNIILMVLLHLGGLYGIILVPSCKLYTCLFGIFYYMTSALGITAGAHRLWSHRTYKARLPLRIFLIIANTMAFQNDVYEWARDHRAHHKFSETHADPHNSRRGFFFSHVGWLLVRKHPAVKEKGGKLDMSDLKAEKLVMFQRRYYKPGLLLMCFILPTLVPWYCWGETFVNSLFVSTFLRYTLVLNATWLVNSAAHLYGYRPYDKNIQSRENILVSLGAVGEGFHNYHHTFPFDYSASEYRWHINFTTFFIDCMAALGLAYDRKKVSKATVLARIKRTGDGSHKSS
Description: After synthesis feasibility and cost analysis, we synthesized 38 of the selected compounds. […] To evaluate inhibition of SCD1 by these molecules, we used LC/MS to quantify changes in SCD1-catalyzed conversion of stearoyl-CoA to oleoyl-CoA in response to drug treatments in vitro using SCD1 protein extracted from murine liver (Figure 3c, Supplementary Figure 2g). […] Synthesis routes and spectral data including NMR and MS are also provided (Supplementary Figures 3-6).
Microsomes were isolated from murine liver using Microsome Isolation Kit (BioVision) per the manufacturer protocol. […] To quantify biotransformation of ^13C18-stearoyl CoA to ^13C18-oleoyl CoA for drug treatments relative to vehicle controls, supernatants were evaluated using the LC/MS^2 acyl CoA quantitation method of Magnes et al. and adapting selected reaction monitoring (SRM) for isotope-labeled acyl CoAs. […] SRM signal areas for isotope-labeled acyl CoAs were measured relative to the heptadecanoyl CoA I.S. using XCalibur software (Thermo), and percent enzyme inhibition determined by comparing ^13C18-oleoyl CoA quantities between treatment and DMSO control assays. […]

[2] = test system: ACHN ccRCC pulmonary metastasis; test: ACHN pulmonary metastasis model; type: in vivo, athymic nude mice; settings: 180 mg/kg in chow, 28 days
Method: SCD1 expression correlates with poor cancer patient outcomes as evidenced by decreased survival in multiple cancers including gastric, lung, ovarian and renal cell carcinoma (Figure 5a-5b, Supplementary Figure 9a-9b). […] Our findings in thyroid carcinoma similarly present discordancy between tumor response to SCD1 inhibitors and SCD1 expression. SSI-4 was tested in vivo for anti-tumorigenic activity.
Figure 5 SSI-4 attenuates tumor progression Kaplan Meier survival analysis of indicated subtypes of (a) gastric and (b) lung cancer patients sorted into high versus low SCD1 mRNA expression, for multiple disease subtypes. Patient risk assessment at indicated mean follow-up is shown. […] (h) Tumor burden of ACHN pulmonary metastasis in response to SSI-4 treatment (180mg/kg) measured by ex vivo bioluminescent flux, given in photons/second (n=5 per group). ([…]) Tumor burden of ACHN pulmonary metastasis as determined by H&E staining of lungs from (h).
ACHN cells were infected with pSIN Luc Ub Emerald GFP lentivirus construct, a kind gift from Dr. Yasuhiro Ikeda (Mayo Clinic). […] Lesion width was calculated as the mean of all nodules measured (7-12 per mouse), identified by H&E staining.
A498 cells were injected subcutaneously in the flank of athymic nude mice at 1x10^6/mouse. […] Tumor burden was measured using calipers. […]

[3] = Tolerability of chronic treatment in tumor-bearing animals; type: in vivo, athymic nude mice
Method: Chronic treatment at the highest dose in tumor-bearing animals appeared to be well tolerated, with ‹10% reduction in body mass even at the highest dose of 600mg/kg after 4.5 weeks of daily treatment (Supplementary Figure S9d).
A498 cells were injected subcutaneously in the flank of athymic nude mice at 1x10^6/mouse. Once tumor burden reached >50mm^3, SSI-4 treatment was administered at 60, 180, or 600 mg/kg in custom AIN76 animal chow (Research Diets, Inc.), given continuously for 4.5 weeks. Tumor burden was measured using calipers. For the lung tumor study, 2 million ACHN- pSIN Luc Ub Emerald GFP cells were injected intravenously in 50µL of PBS in athymic nude mice. 54 days after implantation, animals began SSI-4 treatment (180 mg/kg, chow, continuous) for 28 days. Once therapy was completed, lung tissue was harvested and analyzed for tumor burden via ex vivo bioluminescent imaging, and hematoxylin and eosin (H&E) staining of formalin-fixed, paraffin-embedded lung tissue. 20× images were obtained using Scanscope XT and Imagescope software.
Supplementary Figure 9: Patient survival correlated with SCD1 gene expression. […] (d) Change in body weight (BW) corrected for individual total weight, recorded during in vivo dose-response to SSI-4 in A498 xenograft model (Figure 3g). […]

IC50 [1]: 1.9 nM
Compound: CNC(=O)c1ccnc(NC(=O)N2CCC(Oc3ccccc3Cl)CC2)c1 [SSI-4]
pulmonary metastasis formation of ACHN ccRCC [2]: reduced
primary adverse events ([3]; reversible upon discontinuation of therapy): Ocular changes including bilateral squinting
reduction in body mass ([3]; tumor-bearing animals, 600mg/kg, 4.5 weeks of daily treatment): < 10%

Source: paper PMC5787466, “Accelerated bottom-up drug design platform enables the discovery of novel stearoyl-CoA desaturase 1 inhibitors for cancer therapy” (Oncotarget, 2017)
